# Assay results from patent US20050089473A1, “Potassium channel mediated delivery of agents through the blood-brain barrier” (Cedars-Sinai Medical Center, priority 2003, published 2005).
# Several values for one entry are separate records, joined by “and”; a condition that tells them apart may be missing. Equal values may be shown once. Read-outs that look alike come from different tables or passages of the source. Ends that are not written are not given here.
# Assays:
# [1] = cited from earlier work
# [2] = biological target: T1, soluble guanylyl cyclase (Bos taurus, UniProt P16068+P19687); conditions: cited from earlier work
# T1 sequence (P16068 1-619): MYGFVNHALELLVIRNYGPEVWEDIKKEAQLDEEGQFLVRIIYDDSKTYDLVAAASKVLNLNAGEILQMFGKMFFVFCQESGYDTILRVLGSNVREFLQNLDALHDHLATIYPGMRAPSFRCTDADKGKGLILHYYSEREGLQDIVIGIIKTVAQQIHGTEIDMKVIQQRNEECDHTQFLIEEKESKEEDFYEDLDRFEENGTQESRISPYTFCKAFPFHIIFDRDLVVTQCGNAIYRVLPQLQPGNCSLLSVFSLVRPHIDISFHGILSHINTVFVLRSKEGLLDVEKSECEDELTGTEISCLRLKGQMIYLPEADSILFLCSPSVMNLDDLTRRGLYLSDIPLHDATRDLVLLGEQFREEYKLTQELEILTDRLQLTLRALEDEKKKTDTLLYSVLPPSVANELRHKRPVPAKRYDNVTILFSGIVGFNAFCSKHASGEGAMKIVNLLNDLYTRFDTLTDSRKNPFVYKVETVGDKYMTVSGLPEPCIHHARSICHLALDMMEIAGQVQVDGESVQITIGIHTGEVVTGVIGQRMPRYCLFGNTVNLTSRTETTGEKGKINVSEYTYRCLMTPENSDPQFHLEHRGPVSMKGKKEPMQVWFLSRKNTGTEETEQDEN
# T1 sequence (P19687 1-691): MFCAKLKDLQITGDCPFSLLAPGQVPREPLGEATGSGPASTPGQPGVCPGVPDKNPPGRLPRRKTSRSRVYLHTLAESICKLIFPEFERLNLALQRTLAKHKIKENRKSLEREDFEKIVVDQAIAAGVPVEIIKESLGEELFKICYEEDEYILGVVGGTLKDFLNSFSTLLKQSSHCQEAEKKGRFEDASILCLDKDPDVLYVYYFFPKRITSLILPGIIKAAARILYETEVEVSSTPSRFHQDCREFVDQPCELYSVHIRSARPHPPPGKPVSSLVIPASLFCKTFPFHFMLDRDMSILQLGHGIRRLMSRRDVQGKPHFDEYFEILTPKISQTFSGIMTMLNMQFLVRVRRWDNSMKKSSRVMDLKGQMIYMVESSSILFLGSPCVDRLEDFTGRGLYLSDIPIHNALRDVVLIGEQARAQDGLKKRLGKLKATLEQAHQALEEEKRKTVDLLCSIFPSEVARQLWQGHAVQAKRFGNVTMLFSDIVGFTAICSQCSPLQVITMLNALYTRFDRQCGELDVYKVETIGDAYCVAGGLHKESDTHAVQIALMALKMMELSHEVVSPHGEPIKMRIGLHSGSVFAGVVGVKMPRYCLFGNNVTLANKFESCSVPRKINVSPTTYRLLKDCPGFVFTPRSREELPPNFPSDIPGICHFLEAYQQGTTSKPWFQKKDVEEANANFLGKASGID
# [3] = cited from earlier work; remark: listed apart in the source
# [4] = system: intracranial human glial tumors; assay: Survival study, nude mice with intracranial human glial tumors; type: in vivo, mouse; conditions: i.v., three consecutive doses for three days
# Description: GBM-xenograft rat and mouse models were developed by intracranially implanting primary GBM cells isolated from patient brain tumor tissue. […] To investigate whether MS administration by intracarotid (i.c.) and intravenous (i.v.) routes, increases BTB permeability to different tracers, and enhances delivery to brain tumor, permeability studies were performed.
# Nude mice were intracranially implanted with cells. The tumor was allowed to grow for 7 days before treatment was initiated.
# [5] = system: intracranial RG2 tumors; assay: Survival study, rats with intracranial RG2 tumors; type: in vivo, rat
# Description: Wistar rats with implanted intracranial tumors were used to study the effect of MS on increased carboplatin delivery and survival. RG2 cells (1×10^5) were implanted intracranially to form a tumor (2 mm in size) in rats within a week. After a week, rats were given saline, carboplatin (5 mg/kg) or carboplatin after 15 min of MS (30 μg/kg/min for 15 min) infusion through an exteriorized catheter once a day for three consecutive days. The rats were carefully monitored for mortality and clinical signs due to brain tumor growth for 90 days or until death, whichever came first. Brains of dead, moribund or those rats that survived beyond 90 days were removed, frozen and cryosectioned for histological evaluation, in order to compare tumor volumes between treated and untreated groups. Kaplan-Meier analysis was performed to determine the statistical significance of the results.
# [6] = system: KATP channels; assay: Membrane potential assay of KATP channel activity; type: cell-based, human; conditions: RBEC, HBMVEC, RG2 and GBM cells
# Description: Functional activities of putative KATP channels in HBMVEC and GBM cells were measured by detecting changes in voltage across the cell membrane as described earlier (Ningarsj, N. S., Rao, M., Hashizume, K., Asotra, K., and Black, K. L. Regulation of blood-brain tumor barrier permeability by calcium-activated potassium channels J. Pharmacol. Exp. Ther., 301:838-851, 2002). A membrane potential assay kit (Molecular Devices, Sunnyvale, Calif.) provided a fast, simple and consistent mix-and-read procedure. In brief, HBMVEC and GBM cells obtained from cell passages 2-5 was suspended in 5 ml of growth medium. In two separate experiments, the cell density was adjusted to 1×10^3 cells/well and coated in sterile, clear bottom, blank 96-well plates (Corning, Inc., Acton, Mass.), pre-coated with poly L-Lysine, and allowed to achieve a monolayer within 24 h. The monolayer cells were incubated with the membrane potential assay kit reagents for 30 min and read directly by FLEXstation. The anionic pchemiometric dye that traverses between cells and the extracellular solution in a membrane potential-dependent manner serves as an indicator of vasomodulator-induced voltage changes across the cell membrane. […] Additionally, the effects of the optimum dose (10 μM) of MS and glibenclamide (100 nM) on KATP channels activity in HBMVEC and GBM cells were determined.
# [7] = system: intracerebral RG2 tumors; assay: In vivo BTB permeability (Ki by quantitative autoradiography) in RG2 tumor-bearing rats; design: species or system rat; conditions: data not shown
compound,measurement,setting,value
"NCCCNCCCCN(CCCN)N(O)N=O [SPER/NO, N-(4-[1-(3-aminopropyl)-2-hydroxy-2-nitroso-hydrazino]-butyl)-1,3-propanediamine]",Half-life (t1/2) of NO donor,[1],34 to 40 min
"[C-]#[O+] [CO, Carbon monoxide]",Increase in soluble guanylyl cyclase activity,[2]; in the presence of YC-1,> 100 fold
"CCCN(CCCN)N(O)N=O [PAPA/NO, 3-(2-hydroxy-2-nitroso-1-propylhydrazino)-1-propanamine]",Half-life (t1/2) of NO donor,[1],about 15 minutes
"NCCN(CCN)N(O)N=O [DETA/NO, 2,2′-hydroxynitrosohydrazino]bis-ethanamine]",Half-life (t1/2) of NO donor,[1],about 20 hours
RPPGFSPFR [BK],Effect on CBF in tumor and normal brain,"[3]; rat, in vivo",did not alter CBF
Cn1nnc2c(C(N)=O)ncn2c1=O [temodor],Mean survival,[4],25.5 ± 6.3 days
N.N.O=C([O-])C1(C(=O)[O-])CCC1.[Pt+2] [carboplatin],Mean survival,"[5]; RG2 tumor rats, i.c. once a day for three days, carboplatin 5 mg/kg, MS 30 μg/kg/min for 15 min",55.46 ± 5.71 days
same,Mean tumor size,[5]; coronal brain sections,5.30±1.9 mm^2 and 5.30±1.2 mm^2
"O=c1[nH]c2cc(C(F)(F)F)ccc2n1-c1cc(C(F)(F)F)ccc1O [NS-1619, 1,3-dihydro-1-[2-hydroxy-5-(trifluoromethyl)phenyl]-5-(trifluoromethyl)-2H-benzimidazol-2-one]",Effect on CBF in tumor and normal brain,[3]; i.c. infusion of low doses,did not alter CBF
COc1ccc(Cl)cc1C(=O)NCCc1ccc(S(=O)(=O)NC(=O)NC2CCCCC2)cc1 [glibenclamide],Membrane potential dye fluorescence intensity,[6],reversed
same,"BBB or BTB permeability, glibenclamide infused alone or prior to MS",[7],did not affect BBB or BTB permeability
"CCN(CC)N(O)N=O.CCNCC [DEA/NO, N-ethylethanamine: 1,1-diethyl-2-hydroxy-2-nitrosohydrazine (1:1)]",Half-life (t1/2) of NO donor,[1],2 to 4 min
"CC(=O)NC(C(=O)O)C(C)(C)SN=O (racemic) [SNAP, S-nitroso-N-acetyl-D,L-penicillamine]",Half-life (t1/2) of NO donor,[1],1980 to 2460 min
"[N]=O [NO, Nitric oxide]",Increase of vMax of sGC,[2],100-200 fold
